Measured values reported in ChEMBL document CHEMBL1201862, “PubChem BioAssay data set” (2004).
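Step 1: Grow cells in 96-well plates. Step 2: Expose to compound for 48 hours at 5 concentrations. Step 3: Interpolate endpoints linearly; if unreached, use highest concentration. The concentration for 50% growth inhibition is given as GI50.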 Calls of active or inactive are those of the source. Rule as the data show it: active = GI50 up to about 1.1 µM and inactive = higher.

Columns and labels:
Assay in all cases: NCI tumour cell line growth inhibition, 48 h
786-0 = tested on: 786-0
ACHN = tested on: ACHN
EKVX = tested on: EKVX
HCT-116 = tested on: HCT-116
HT-29 = tested on: HT-29
M14 = tested on: M14
MOLT-4 = tested on: MOLT-4
Malme-3M = tested on: Malme-3M
NCI-H226 = tested on: NCI-H226
NCI-H23 = tested on: NCI-H23
NCI-H522 = tested on: NCI-H522
OVCAR-3 = tested on: OVCAR-3
OVCAR-8 = tested on: OVCAR-8
RPMI-8226 = tested on: RPMI-8226
SK-MEL-2 = tested on: SK-MEL-2
SR = tested on: SR
UACC-62 = tested on: UACC-62
A498 = tested on: A498

Measured: GI50

CCOc1ccccc1NC(=O)CCc1nnc(S)[nH]1
inactive: 786-0 > 100 µM | ACHN > 100 µM | EKVX > 100 µM | HCT-116 > 100 µM | HT-29 > 100 µM | M14 > 100 µM | MOLT-4 > 100 µM | Malme-3M > 100 µM | NCI-H226 > 100 µM | NCI-H23 > 100 µM | NCI-H522 > 100 µM | OVCAR-3 > 100 µM | OVCAR-8 > 100 µM | RPMI-8226 > 100 µM | SK-MEL-2 > 100 µM | SR > 100 µM | UACC-62 > 100 µM

Cn1c(=O)oc2cc(C3CCC(=O)N3Cc3ccc(Cl)cc3)ccc21 (stereo unspecified)
inactive: 786-0 > 100 µM | ACHN > 100 µM | EKVX > 100 µM | HCT-116 > 100 µM | HT-29 > 100 µM | M14 > 100 µM | MOLT-4 > 100 µM | Malme-3M > 100 µM | NCI-H226 > 100 µM | NCI-H23 > 100 µM | NCI-H522 > 100 µM | OVCAR-8 > 100 µM | RPMI-8226 > 100 µM | SK-MEL-2 > 100 µM | SR > 100 µM | UACC-62 > 100 µM

Nc1ccc(N)c2c1C(=O)c1ccccc1C2=O
inactive: 786-0 78.7 µM | A498 7.35 µM | ACHN 4.66 µM | EKVX 87.5 µM | HCT-116 11.1 µM | HT-29 57.9 µM | M14 17.7 µM | MOLT-4 13.4 µM | Malme-3M 24 µM | NCI-H226 > 100 µM | NCI-H23 17.7 µM | NCI-H522 9.48 µM | OVCAR-3 43.9 µM | OVCAR-8 76.2 µM | RPMI-8226 9.16 µM | SK-MEL-2 79.1 µM | UACC-62 15.7 µM

COC(=O)C(CC(=O)c1cc2c(cc1I)OCO2)Cc1cc(OC)c(OC)c(OC)c1I (stereo unspecified)
inactive: 786-0 > 100 µM | ACHN 80.4 µM | EKVX > 100 µM | HCT-116 19.2 µM | HT-29 > 100 µM | MOLT-4 8.67 µM | Malme-3M > 100 µM | NCI-H226 > 100 µM | NCI-H23 45.6 µM | NCI-H522 9.06 µM | OVCAR-3 7.21 µM | OVCAR-8 > 100 µM | RPMI-8226 8.13 µM | SK-MEL-2 > 100 µM | SR 8.69 µM | UACC-62 37.2 µM

O=C1c2ccccc2C2(O)NC(=S)N(c3ccccc3)C12O (stereo unspecified)
inactive: 786-0 > 100 µM | EKVX > 100 µM | HCT-116 > 100 µM | HT-29 > 100 µM | M14 > 100 µM | MOLT-4 > 100 µM | Malme-3M > 100 µM | NCI-H23 > 100 µM | NCI-H522 > 100 µM | OVCAR-3 > 100 µM | OVCAR-8 > 100 µM | RPMI-8226 > 100 µM | SK-MEL-2 > 100 µM | SR > 100 µM | UACC-62 > 100 µM
